The values that follow are results of earlier work, collected in PMC6219411 (Drug Design, Development and Therapy, 2018).

The conditions of the data set: oral preparation.

In the case of `CC(C)(C#N)c1cc(Cn2cncn2)cc(C(C)(C)C#N)c1` [anastrozole, Anastrozole], the mean elimination half-life is recorded as 40 to 50 h and the “time to maximum plasma concentrations” value was no more than 2 h.
